{"source": "patent US7977375B2", "about": "“Antibiotic and method of production thereof” (Helmholtz-Zentrum Für Infektionsforschung GmbH, priority 2004, dated 2011)", "key": {"Candida krusei DSM 6128": {"test_system": "Candida krusei DSM 6128", "experiment": "MIC / MBC in liquid culture", "format": "cell-based", "details": "Pichia kudriavzevii, DSM6128, read-out: MIC (minimal inhibitory concentration)"}, "[1]": {"test_system": "Candida parapsilosis DSM5784", "experiment": "MIC / MBC in liquid culture", "format": "cell-based", "details": "Lodderomyces parapsilosis, read-out: MIC (minimal inhibitory concentration)"}, "[2]": {"test_system": "Candida albicans DSM 11225", "experiment": "MIC / MBC in liquid culture", "format": "cell-based", "details": "DSM11225, read-out: MIC (minimal inhibitory concentration)"}, "B. cepacia SCV 141": {"test_system": "B. cepacia SCV 141", "experiment": "agar diffusion method, inhibition zone", "format": "cell-based, Burkholderia cepacia", "details": "MH agar, 18 hours at 37° C., per disk 10 μl crude extract, 50 μg macrolactin, 78 μg erythromycin, 10 μg ampicillin", "protocol": "(§1) The agar diffusion method employing Mueller-Hinton (MH) agar (Difco Laboratories) was used to determine effectiveness against bacteria and yeasts. Sterile paper disks (Schleicher & Schüell, Germany) were seeded with 10 μl crude extract or with a solution of purified macrolactin (final compound concentration on the disk 50 μg) and then placed on the surface of MH-agar plates that had been seeded beforehand with a suspension of overnight culture of the test microorganisms at a concentration of 10^5 cells/ml.\nThe B. cepacia strain used, which is a clinical isolate from a cystic fibrosis patient, forms small colonies (SCV 141)."}, "E. faecalis VRAS E305": {"test_system": "E. faecalis VRAS E305", "experiment": "agar diffusion method, inhibition zone", "format": "cell-based, Enterococcus faecalis", "details": "E. faecalis VRAS E305; MH agar, 18 hours at 37° C.; per disk 10 μl crude extract, 50 μg macrolactin, 78 μg erythromycin, 30 μg vancomycin, 10 μg ampicillin", "protocol": "as §1"}, "E. faecalis ATCC 29212": {"test_system": "E. faecalis ATCC 29212", "experiment": "agar diffusion method, inhibition zone", "format": "cell-based, Enterococcus faecalis", "details": "E. faecalis ATCC 29212; MH agar, 18 hours at 37° C.; per disk 10 μl crude extract, 50 μg macrolactin, 78 μg erythromycin, 30 μg vancomycin, 10 μg ampicillin", "protocol": "as §1"}, "E. faecium VRAR E315": {"test_system": "E. faecium VRAR E315", "experiment": "agar diffusion method, inhibition zone", "format": "cell-based, Enterococcus faecium", "details": "E. faecium VRAR E315; MH agar, 18 hours at 37° C.; per disk 10 μl crude extract, 50 μg macrolactin, 78 μg erythromycin, 30 μg vancomycin, 10 μg ampicillin", "protocol": "as §1"}, "bacteria": {"test_system": "bacteria", "details": "state of the art; cited from earlier work"}, "S. aureus DSMZ 1104": {"test_system": "S. aureus DSMZ 1104", "experiment": "agar diffusion method, inhibition zone", "format": "cell-based, Staphylococcus aureus", "details": "S. aureus DSMZ 1104; MH agar, 18 hours at 37° C.; per disk 10 μl crude extract, 50 μg macrolactin, 78 μg erythromycin, 30 μg vancomycin, 10 μg ampicillin", "protocol": "as §1"}, "[3]": {"test_system": "MRSA 2 (methicillin-resistant S. aureus, clinical isolate)", "experiment": "agar diffusion method, inhibition zone", "format": "cell-based, Staphylococcus aureus", "details": "MRSA 2; MH agar, 18 hours at 37° C.; per disk 10 μl crude extract, 50 μg macrolactin, 78 μg erythromycin, 30 μg vancomycin, 10 μg ampicillin", "protocol": "as §1"}, "[4]": {"test_system": "MRSA 3 (methicillin-resistant S. aureus, clinical isolate)", "experiment": "agar diffusion method, inhibition zone", "format": "cell-based, Staphylococcus aureus", "details": "MRSA 3; MH agar, 18 hours at 37° C.; per disk 10 μl crude extract, 50 μg macrolactin, 78 μg erythromycin, 30 μg vancomycin, 10 μg ampicillin", "protocol": "as §1"}, "[5]": {"test_system": "S. aureus # (own collection, methicillin-sensitive control strain)", "experiment": "agar diffusion method, inhibition zone", "format": "cell-based, Staphylococcus aureus", "details": "S. aureus # own collection; MH agar, 18 hours at 37° C.; per disk 10 μl crude extract, 50 μg macrolactin, 78 μg erythromycin, 30 μg vancomycin, 10 μg ampicillin", "protocol": "as §1"}, "[6]": {"test_system": "L929 mouse fibroblast cells", "experiment": "inhibition of proliferation, CyQUANT cell proliferation test", "format": "cell-based", "details": "5 days", "protocol": "The cytotoxicity of 7-O-malonyl macrolactin A was compared to that of 7-O-succinyl macrolactin A and macrolactin A in vitro with respect to the inhibition of the proliferation of L929 mouse fibroblast cells or the human epithelial cell line HeLa.\nFor the cell culture, the HeLa cells were cultivated in low-glucose DMEM medium (Gibco), and the L929 cells in high-glucose DMEM medium. Both were supplemented with 10% by volume foetal calf serum (Gibco) at 37° C. in an atmosphere containing 5% CO2. The cells were extracted from stock cultures by means of trypsinization with EDTA (HeLa) or without EDTA (L929), then counted and diluted to 2×10^5 cells/ml. For the tests, microtitre plates (Nunc.) comprising 96 depressions were plated out in serial dilution without or in the presence of the test compounds or methanol. Determination of morphological alterations of the cells was carried out by means of phase contrast microscopy after 1, 2 and 5 days incubation.\nAfter 5 days cultivation, cell counts were determined by the CyQUANT cell proliferation test (Molecular Probes), which is a highly sensitive microtitre plate test based on fluorescence. The test employs the dye CyQUANT, which, by binding to cellular nucleic acids, enhances fluorescence, which can then be measured by fluorescein excitation. The emission of fluorescence by the dye-nucleic acid complex correlated linearly with the cell count. For test purposes, the residue was carefully removed after 5 days incubation, the cells washed with PBS (phosphate buffered saline solution), the buffer removed and the cells frozen at −80° C. For the test, the cells were thawed at ambient temperature and lysated in a buffered solution containing the dye CyQUANT, in accordance with manufacturer's instructions. Fluorescence was measured by means of a fluormetric microtitre-plate reader (Titertex Fluorskan II) (excitation at 480 nm, emission at 520 nm). The […] were used to calculate the percentage of cellular proliferation in medium both alone and in the presence of serial dilutions of methanol and the macrolactin compounds. […] Proliferation was measured by means of the fluorescence-based test CyQUANT for determining viable cell counts. Table 5 illustrates the relative inhibition of proliferation as compared to a control culture comprising fresh medium without the addition of a macrolactin."}, "[7]": {"details": "state of the art; cited from earlier work"}, "HIV": {"test_system": "HIV", "details": "state of the art; cited from earlier work"}, "[8]": {"details": "JP 9301970; cited from earlier work"}}}
{"compound": "Clc1ccc(COC(Cn2ccnc2)c2ccc(Cl)cc2Cl)c(Cl)c1", "note": "(stereo not drawn) [MCZ, miconazol]", "values": [{"measurement": "MIC", "setting": "Candida krusei DSM 6128", "value": 2, "unit": "µg/mL"}, {"measurement": "MIC", "setting": "[1]", "value": 2, "unit": "µg/mL"}, {"measurement": "MIC", "setting": "[2]", "value": 2, "unit": "µg/mL"}]}
{"compound": "C[C@@H]1CCC/C=C/C=C/C(O)CC(O)C/C=C\\C=C\\C(O)C/C=C/C=C\\C(=O)O1", "note": "(stereo partly drawn) [Macrolactin A, 8, 14, 16-trihydroxy-24(R)-methyl-oxacyclotetracosa-3(Z), 5(B), 9(E), 11(Z), 17(E), 19(E)-hexaen-2-on]", "values": [{"measurement": "Inhibition zone", "setting": "B. cepacia SCV 141", "value": 0, "unit": "mm"}, {"measurement": "Inhibition zone", "setting": "E. faecalis VRAS E305", "value": 0, "unit": "mm"}, {"measurement": "Inhibition zone", "setting": "E. faecalis ATCC 29212", "value": 0, "unit": "mm"}, {"measurement": "Inhibition zone", "setting": "E. faecium VRAR E315", "value": 0, "unit": "mm"}, {"measurement": "antibacterial activity", "setting": "bacteria", "value": "relatively weak"}, {"measurement": "Inhibition zone", "setting": "S. aureus DSMZ 1104", "value": 18, "unit": "mm"}, {"measurement": "Inhibition zone", "setting": "[3]", "value": 27, "unit": "mm"}, {"measurement": "Inhibition zone", "setting": "[4]", "value": 35, "unit": "mm"}, {"measurement": "Inhibition zone", "setting": "[5]", "value": 25, "unit": "mm"}, {"measurement": "Inhibition of proliferation", "setting": "[6]; compound concentration 3.9 μg/ml", "value": 23, "unit": "%"}, {"measurement": "Inhibition of proliferation", "setting": "[6]; compound concentration 7.8 μg/ml", "value": 29, "unit": "%"}, {"measurement": "Inhibition of proliferation", "setting": "[6]; compound concentration 15.6 μg/ml", "value": 38, "unit": "%"}, {"measurement": "Inhibition of proliferation", "setting": "[6]; compound concentration 31.25 μg/ml", "value": 81, "unit": "%"}, {"measurement": "Inhibition of proliferation", "setting": "[6]; compound concentration 56.5 μg/ml", "value": 83, "unit": "%"}, {"measurement": "Inhibition of proliferation", "setting": "[6]; compound concentration 125 μg/ml", "value": 83, "unit": "%"}, {"measurement": "cytotoxicity", "setting": "[7]", "value": "cytotoxic"}, {"measurement": "antiviral activity", "setting": "HIV", "value": "active against HIV"}]}
{"compound": "macrolactin M", "values": [{"measurement": "antimicrobial activity", "setting": "[8]", "value": "antimicrobially active"}]}
